Reference: patent US7629344B2, “3-(imidazolyl)-pyrazolo[3,4-b]pyridines” (ChemoCentryx, Inc., priority 2007, dated 2009)

Tested on: not listed separately
Test: Pharmacokinetic tests conducted in animals
Type: in vivo
Conditions: over related compounds (U.S. Publication No. 2007/0010524A1)

| Compound | AUC | Cmax | oral bioavailability |
| --- | --- | --- | --- |
| COc1cc(N2CCN(C(=O)Cn3nc(-c4ncc[nH]4)c4cccnc43)CC2)ccc1Cl [1.016, 1-[4-(4-Chloro-3-methoxy-phenyl)-piperazin-1-yl]-2-[3-(1H-imidazol-2-yl)-pyrazolo[3,4-b]pyridin-1-yl]-ethanone] | increased | increased | improved |

Tested on: Female New Zealand rabbits
Test: Rabbit model of destructive joint inflammation (rabbit LPS study)
Type: in vivo
Conditions: intra-articular LPS (10 ng) in both knees; dosed orally 2 hours before and 4 hours after LPS; knees lavaged sixteen hours after LPS
Procedure: A rabbit LPS study was conducted essentially as described in Podolin, et al. J. Immunol. 169(11):6435-6444 (2002). Female New Zealand rabbits (approximately 2 kilograms) were treated intra-articularly in both knees with LPS (10 ng). The compound of interest, for example 1.016, (formulated in 1% methocel) or vehicle (1% methocel) was dosed orally at a 5 ml/kg dose volume at two times (2 hours before the intra-articular LPS injection and 4 hours after the intra-articular LPS injection). Sixteen hours after the LPS injection, knees were lavaged and cells counts were performed. Beneficial effects of treatment were determined by reduction in the number of inflammatory cells recruited to the inflamed synovial fluid of the knee joints.

| Compound | number of inflammatory cells recruited to the inflamed synovial fluid of the knee joints |
| --- | --- |
| COc1cc(N2CCN(C(=O)Cn3nc(-c4ncc[nH]4)c4cccnc43)CC2)ccc1Cl [1.016, 1-[4-(4-Chloro-3-methoxy-phenyl)-piperazin-1-yl]-2-[3-(1H-imidazol-2-yl)-pyrazolo[3,4-b]pyridin-1-yl]-ethanone] | significant reduction |

Biological target: T1, CCR1 (Homo sapiens, UniProt P32246)
T1 construct: host or cells: THP-1 cells or freshly isolated monocytes
T1 sequence (P32246 1-355): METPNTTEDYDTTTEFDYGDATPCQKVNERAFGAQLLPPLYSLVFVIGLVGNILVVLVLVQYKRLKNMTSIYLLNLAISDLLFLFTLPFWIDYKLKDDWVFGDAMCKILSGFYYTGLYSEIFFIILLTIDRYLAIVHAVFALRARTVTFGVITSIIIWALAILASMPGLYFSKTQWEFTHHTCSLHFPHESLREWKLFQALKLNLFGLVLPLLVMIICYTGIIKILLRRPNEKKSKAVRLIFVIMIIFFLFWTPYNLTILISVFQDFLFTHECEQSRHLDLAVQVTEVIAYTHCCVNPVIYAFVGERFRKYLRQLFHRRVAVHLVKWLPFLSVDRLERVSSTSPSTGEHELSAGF
Test: Chemotaxis assay (inhibition of CCR1 mediated migration)
Type: cell-based
Conditions: THP-1 or monocyte cells; CCR1 chemokine ligand (MIP-1α, CCL15/Leukotactin); 1-2 hours at 37° C.
Procedure: THP-1 cells were obtained from ATCC (TIB-202) and cultured as a suspension in RPMI-1640 medium supplemented with 2 mM L-glutamine, 1.5 g/L sodium bicarbonate, 4.5 g/L glucose, 10 mM HEPES, 1 mM sodium pyruvate, 0.05% 2-mercaptoethanol and 10% FBS. Cells were grown under 5% CO2/95% air, 100% humidity at 37° C. and subcultured twice weekly at 1:5 (cells were cultured at a density range of 2×10^5 to 2×10^6 cells/mL) and harvested at 1×10^6 cells/mL. THP-1 cells express CCR1 and can be used in CCR1 binding and functional assays. • 2. Chemotaxis Assays
Chemotaxis assays were performed using 5 μm pore polycarbonate, polyvinylpyrrolidone-coated filters in 96-well chemotaxis chambers (Neuroprobe; Gaithersburg, Md.) using chemotaxis buffer (Hank's balanced salt solution (HBSS) and 1% FBS). CCR1 chemokine ligands (i.e., MIP-1α, CCL15/Leukotactin; R&D Systems; Minneapolis, Minn.) are use to evaluate compound mediated inhibition of CCR1 mediated migration. Other chemokines (i.e., SDF-1α; R&D Systems; Minneapolis, Minn.) are used as specificity controls. The lower chamber was loaded with 29 μl of chemokine (i.e., 0.1 nM CCL15/Leukotactin) and varying amounts of compound; the top chamber contained 100,000 THP-1 or monocyte cells in 20 μl. The chambers were incubated 1-2 hours at 37° C., and the number of cells in the lower chamber quantified either by direct cell counts in five high powered fields per well or by the CyQuant assay (Molecular Probes), a fluorescent dye method that measures nucleic acid content and microscopic observation. • B. Identification of Inhibitors of CCR1
One of the primary functions of chemokines is their ability to mediate the migration of chemokine receptor-expressing cells, such as white blood cells. To confirm that a compound of interest inhibited not only CCR1 specific binding and signaling (at least as determined by calcium mobilization assays), but also CCR1 mediated migration, a chemotaxis assay was employed. THP-1 myelomonocytic leukemia cells, which resemble monocytes, as wells as freshly isolated monocytes, were used as targets for chemoattraction by CCR1 chemokine ligands (i.e., MIP-1α, CCL15/leukotactin). Cells were placed in the top compartment of a microwell migration chamber, while MIP-1α (or other potent CCR1 chemokine ligand) and increasing concentrations of a compound of interest was loaded in the lower chamber. […] In this assay, the amount of compound was varied; while cell number and chemokine agonist concentrations were held constant. After the chemotaxis chambers were incubated 1-2 hours at 37° C., the responding cells in the lower chamber were quantified by labeling with the CyQuant assay (Molecular Probes), a fluorescent dye method that measures nucleic acid content, and by measuring with a Spectrafluor Plus (Tecan). The computer program Prism from GraphPad, Inc. (San Diego, Calif.) was used to calculate IC50 values. IC50 values are those compound concentrations required to inhibit the number of cells responding to a CCR1 agonist by 50%. • 1. In Vivo Efficacy • a) Rabbit Model of Destructive Joint Inflammation

| Compound | IC50 [nM] |
| --- | --- |
| CCOc1cc(N2CCN(C(=O)Cn3nc(-c4ncc[nH]4)c4cccnc43)CC2)c(F)cc1Cl [1.001, 1-[4-(4-Chloro-5-ethoxy-2-fluorophenyl)piperazin-1-yl]-2-[3-(1H-imidazol-2-yl)-pyrazolo[3,4-b]pyridin-1-yl]ethanone] | ≤ 100 |
| O=C(Cn1nc(-c2ncc[nH]2)c2cccnc21)N1CCN(c2cc(OCCF)c(Cl)cc2F)CC1 [1.002, 1-{4-[4-Chloro-2-fluoro-5-(2-fluoroethoxy)-phenyl]piperazin-1-yl}-2-[3-(1H-imidazol-2-yl)-pyrazolo[3,4-b]pyridin-1-yl]ethanone] | ≤ 100 |
| CCOc1cc(N2CCN(C(=O)Cn3nc(-c4ncc[nH]4)c4cccnc43)CC2)ccc1Cl [1.003, 1-[4-(4-Chloro-3-ethoxyphenyl)piperazin-1-yl]-2-[3-(1H-imidazol-2-yl)pyrazolo[3,4-b]pyridin-1-yl]ethanone] | ≤ 100 |
| COc1cc(N2CCN(C(=O)Cn3nc(-c4ncc[nH]4)c4cccnc43)CC2)c(F)cc1Cl [1.004, 1-[4-(4-Chloro-2-fluoro-5-methoxyphenyl)piperazin-1-yl]-2-[3-(1H-imidazol-2-yl)-pyrazolo[3,4-b]pyridin-1-yl]ethanone] | ≤ 100 |
| COc1cc(N2CCN(C(=O)Cn3nc(-c4ncc[nH]4)c4cccnc43)[C@@H](C)C2)ccc1Cl [1.005, 1-[(S)-4-(4-Chloro-3-methoxyphenyl)-2-methylpiperazin-1-yl]-2-[3-(1H-imidazol-2-yl)-pyrazolo[3,4-b]pyridin-1-yl]ethanone] | ≤ 100 |
| COc1cc(N2CCN(C(=O)Cn3nc(-c4ncc[nH]4)c4cccnc43)[C@@H](C)C2)c(F)cc1Cl [1.006, 1-[(S)-4-(4-Chloro-2-fluoro-5-methoxyphenyl)-2-methylpiperazin-1-yl]-2-[3-(1H-imidazol-2-yl)pyrazolo[3,4-b]pyridin-1-yl]ethanone] | ≤ 100 |
| COc1cc(N2CCN(C(=O)Cn3nc(-c4ncc[nH]4)c4cccnc43)C[C@H]2C)ccc1Cl [1.007, 1-[(R)-4-(4-Chloro-3-methoxyphenyl)-3-methylpiperazin-1-yl]-2-[3-(1H-imidazol-2-yl)-pyrazolo[3,4-b]pyridin-1-yl]ethanone] | ≤ 100 |
| COc1cc(N2CCN(C(=O)Cn3nc(-c4ncc[nH]4)c4cccnc43)C[C@@H]2C)ccc1Cl [1.008, 1-[(S)-4-(4-Chloro-3-methoxyphenyl)-3-methylpiperazin-1-yl]-2-[3-(1H-imidazol-2-yl)-pyrazolo[3,4-b]pyridin-1-yl]ethanone] | ≤ 100 |
| COc1cc(N2CCN(C(=O)Cn3nc(-c4ncc[nH]4)c4cccnc43)[C@H](C)C2)ccc1Cl [1.009, 1-[(R)-4-(4-Chloro-3-methoxyphenyl)-2-methylpiperazin-1-yl]-2-[3-(1H-imidazol-2-yl)-pyrazolo[3,4-b]pyridin-1-yl]ethanone] | ≤ 100 |
| CCOc1cc(N2CCN(C(=O)Cn3nc(-c4ncc[nH]4)c4cccnc43)[C@@H](C)C2)ccc1Cl [1.010, 2-(3-(1H-imidazol-2-yl)-1H-pyrazolo[3,4-b]pyridin-1-yl)-1-((S)-4-(4-chloro-3-ethoxyphenyl)-2-methylpiperazin-1-yl)ethanone] | ≤ 100 |
| O=C(Cn1nc(-c2ncc[nH]2)c2cccnc21)N1CCN(c2ccc(Cl)c(OCCF)c2)CC1 [1.011, 2-(3-(1H-imidazol-2-yl)-1H-pyrazolo[3,4-b]pyridin-1-yl)-1-(4-(3-(2-fluoroethoxy)-4-chlorophenyl)piperazin-1-yl)ethanone] | ≤ 100 |
| C[C@H]1CN(c2ccc(Cl)c(OCCF)c2)CCN1C(=O)Cn1nc(-c2ncc[nH]2)c2cccnc21 [1.012, 2-(3-(1H-imidazol-2-yl)-1H-pyrazolo[3,4-b]pyridin-1-yl)-1-((S)-4-(3-(2-fluoroethoxy)-4-chlorophenyl)-2-methylpiperazin-1-yl)ethanone] | ≤ 100 |
| Cc1cc(N2CCN(C(=O)Cn3nc(-c4ncc[nH]4)c4cccnc43)CC2)ccc1Cl [1.013, 1-[4-(4-Chloro-3-methyl-phenyl)-piperazin-1-yl]-2-[3-(1H-imidazol-2-yl)-pyrazolo[3,4-b]pyridin-1-yl]-ethanone] | ≤ 100 |
| O=C(Cn1nc(-c2ncc[nH]2)c2cccnc21)N1CCN(c2ccc(Cl)c(C(F)(F)F)c2)CC1 [1.014, 1-[4-(4-Chloro-3-trifluoromethyl-phenyl)-piperazin-1-yl]-2-[3-(1H-imidazol-2-yl)-pyrazolo[3,4-b]pyridin-1-yl]-ethanone] | > 100 |
| O=C(Cn1nc(-c2ncc[nH]2)c2cccnc21)N1CCN(c2ccc(Cl)c(OC(F)(F)F)c2)CC1 [1.015, 1-[4-(4-Chloro-3-trifluoromethoxy-phenyl)-piperazin-1-yl]-2-[3-(1H-imidazol-2-yl)-pyrazolo[3,4-b]pyridin-1-yl]-ethanone] | > 100 |
| COc1cc(N2CCN(C(=O)Cn3nc(-c4ncc[nH]4)c4cccnc43)CC2)ccc1Cl [1.016, 1-[4-(4-Chloro-3-methoxy-phenyl)-piperazin-1-yl]-2-[3-(1H-imidazol-2-yl)-pyrazolo[3,4-b]pyridin-1-yl]-ethanone] | ≤ 100 |
| COc1cc(N2CCN(C(=O)Cn3nc(-c4nccn4C)c4cccnc43)CC2)ccc1Cl [1.017, 1-[4-(4-Chloro-3-methoxy-phenyl)-piperazin-1-yl]-2-[3-(1-methyl-1H-imidazol-2-yl)-pyrazolo[3,4-b]pyridin-1-yl]-ethanone] | ≤ 100 |

Tested on: not given
Test: not given
Conditions: not given

| Compound | melting point [°C] |
| --- | --- |
| COc1cc(N2CCN(C(=O)Cn3nc(-c4ncc[nH]4)c4cccnc43)CC2)ccc1Cl [1.016, 1-[4-(4-Chloro-3-methoxy-phenyl)-piperazin-1-yl]-2-[3-(1H-imidazol-2-yl)-pyrazolo[3,4-b]pyridin-1-yl]-ethanone] | 149 to 152 |
